Data from patent US20240148835A1, “TREATING DISORDERS ASSOCIATED WITH DYRK1A DYSFUNCTION” (UNIVERSITY OF FLORIDA RESEARCH FOUNDATION, INCORPORATED, priority 2021, published 2024).
“Also recorded” adds a separate entry of the source.

How the values were obtained:
[1] = test system: cHet primary cortical neurons; assay: In vitro primary cortical neuron culture, Sholl analysis of Ctip2+ neurons; type: cell-based, mouse
Method: Lastly, to test whether (1-3)IGF-1 treatment rescues the decreased complexity of Dyrk1a cHet neurons, we cultured control and cHet primary cortical neurons. Neurons analyzed were restricted to Ctip2+ neurons, as we are focused on the impact of Dyrk1a mutations on the growth and connectivity of layer V pyramidal neurons.
In vitro primary neuronal culture: Brains from P0 mice were removed, and whole cortices were dissected. Individual cortices were placed into 1 mL chilled dissecting media (1× HBSS (14175-095), 30 mM glucose, 60 μM HEPES). After aspiration of the dissecting media, the tissue was enzymatically dissociated with papain (LS003126) that was previously diluted 1:80 in pre-warmed plating media [Neurobasal A (10888-022), 5% FBS (16000044), and 1% penicillin/streptomycin (p/s)/0.25% glutamine (10378-016)] and incubated at 37° C. for 15 min. The papain was removed, and the tissue was pipetted into a single-cell suspension in plating media. The suspensions were filtered using 40 μm nylon cell strainers (Fisher Scientific, #352340), and the filtered suspension was centrifuged at 280 RCF for 5 min. […] Samples of the suspensions were diluted 1:4 in trypan blue, and cells were counted with a manual hemocytometer for determination of sample concentration. […]
All coverslip images were taken at 40× magnification on an Olympus VS-120 epifluorescence microscope and analyzed with ImageJ (NIH). […]

ASD mouse models = details: cited from earlier work

## (1-3)IGF-1: a tripeptide cleaved from the N-terminus of IGF-1; acquired from VWR/Bachem, CAS No. 32302-76-4 (GPE; Insulin-like growth factor 1; UniProt P05019 49-51, looked up, fragment)
[1]; 100 ng/mL daily from DIV13 to DIV15, Ctip2+ neurons, DIV15
  neuronal complexity (Sholl arborization) of cHet neurons: rescued; also recorded: rescues decreased arborization
[1]; 100 ng/mL daily from DIV13 to DIV15, DIV15
  neuronal complexity of control neurons: did not affect control neurons
ASD mouse models; ASD mouse models, dosage 10 μg/g (10 mg kg)
  brain penetrance: brain penetrance
ASD mouse models; within 3 hours post-injection
  signaling downstream of IGF-1: increased signaling downstream of IGF-1
